“Also recorded” adds a separate entry of the source. Marks after values point to notes of the source that are not given here.
Legend:
[1] = given orally; cited from earlier work
[2] = oral dosing; cited from earlier work
participants with SSc-RP [3] = test: Safety: adverse events and withdrawals, Phase 2a study Part A; format: in vivo; settings: for overall adverse event rate: all patients who received any dose of cilnidipine (n=17)
From the text: • Incidence of treatment emergent adverse events (AEs) and serious adverse events (SAEs), including clinically significant vital signs. For Part A safety will be assessed from the time of randomization until 7 days following the last protocol dose. For Part B, participants will be followed for 28 days from the last study dose. • Serious adverse events will be monitored by a DSMB (Part A) and Drug Safety Officer (Part B) on an ongoing basis throughout the study. • Adverse events will be coded using the MedDRA and summarized by SOC, PT, and treatment group.
Severity of AEs will be graded by the Investigator as one of: • Mild (Grade 1): A type of AE that is usually transient and may require only minimal treatment or therapeutic intervention.
Adverse events will be coded using the most current version of the MedDRA® Version 22.0 or higher. The analysis of AEs will be based on the concept of treatment emergent AEs. Treatment emergent AEs will be tabulated by treatment group and will include the number of participants for whom the event occurred, the severity, and relationship to study drug. Treatment emergent AEs (TEAEs) leading to discontinuation and SAEs with onset after the start of study drug will also be summarized. All AEs and SAEs (including those with onset or worsening before the start of study drug) through the end of the study will be listed.

Nav 1.7 sodium channel = Nav 1.7 sodium channel (Homo sapiens, UniProt Q15858); settings: 20 mg dose of cilnidipine; cited from earlier work
[4] = 10 mg cilnidipine, healthy volunteers, single oral dose, cited from earlier work
participants with SSc-RP [5] = test: Raynaud's attack diary endpoints (frequency, duration, severity, pain, RCS), Phase 2a study Part A; format: in vivo, human
Experimental: Part A—double-blind, placebo-controlled, parallel-group, dose selection, will assess the safety and efficacy of two doses of cilnidipine (10 mg and 20 mg), alone and in combination with tadalafil. A total of 36 participants will be randomized to one of six prespecified treatment arms. Refer to FIG. 1 for treatment arms in Part A of the study. Dosing last for 12 (±2) days in which participants will self-administer daily doses of assigned treatment in the morning. Each participant will take one capsule and one tablet to blind the active therapy being received.
During screening, the Diary will collect the following data to confirm eligibility and serve as the baseline measure for efficacy endpoints should the participant be randomized: • Number of daily Raynaud's attacks • Duration of each attack • Symptoms of each attack, including numbness, pain, tingling, color changes • Severity of each attack (all symptoms of the attack to be considered including tingling, numbness, pain, color changes) • Location of participant during each attack (inside/outside) • Pain score of each attack-using 11-point Likert scale, a validated pain scale which can be used to record intensity of pain. • Daily RCS— a validated outcome measure used to assess the level of difficulty experienced due to RP each day.
The relevant metrics measured by this tool daily are: • Study medication • SSc-RP symptoms (Reporting an attack including duration of attack) • Severity of the attack considering all symptoms of the attack e.g. tingling, numbness, pain, color changes (VAS 0-10 cm scale) • Participant's location at the time of the attack (inside home/outside home) • Selecting symptoms experienced during the attack (tingling, numbness, pain, color changes, other) • Pain rating during the attack (11-point Likert scale) • The RCS based on how much difficulty participants had with Raynaud's today, how many attacks the participant had, and how long they lasted. Participants will also be asked to consider how much pain, numbness, or other symptoms the Raynaud's caused in fingers (including painful sores), and how much the Raynaud's alone affected the use of hands today (VAS 0-10 cm scale).
Percent change from baseline evaluation for frequency of weekly RP attacks will be the primary efficacy endpoint. Data collected in the last 7 days of each dosing period will be used for this analysis. Screening assessments will be used as baseline for the analysis of all periods. No multiple comparison adjustment will be used to control alpha for the multiple comparisons. Mixed effects model will be used for analysis of the primary endpoint according to the crossover design. Other efficacy endpoints of continuous variables will be analyzed using similar methodology. For nominal data, chi-square tests will be applied. Generalized Estimating Equations method will be used, as appropriate, for adjusting for potential confounding factors. In addition, the final analysis will assess whether in this study of severe Raynaud's disease participants, the minimally important difference, previously concluded of 14-15 points on the 100 point RCS scale has been achieved in the cilnidipine dose group. It also will record the percentage of participants achieving a PASS (34 point difference from baseline on a 0-100 VAS) in each treatment group.

[6] = cilnidipine 10 mg and/or tadalafil 5 mg arms
[7] = cilnidipine 20 mg arms (alone or + tadalafil 5 mg)

Chain of Nav 1.7 sodium channel (Q15858 whole entry): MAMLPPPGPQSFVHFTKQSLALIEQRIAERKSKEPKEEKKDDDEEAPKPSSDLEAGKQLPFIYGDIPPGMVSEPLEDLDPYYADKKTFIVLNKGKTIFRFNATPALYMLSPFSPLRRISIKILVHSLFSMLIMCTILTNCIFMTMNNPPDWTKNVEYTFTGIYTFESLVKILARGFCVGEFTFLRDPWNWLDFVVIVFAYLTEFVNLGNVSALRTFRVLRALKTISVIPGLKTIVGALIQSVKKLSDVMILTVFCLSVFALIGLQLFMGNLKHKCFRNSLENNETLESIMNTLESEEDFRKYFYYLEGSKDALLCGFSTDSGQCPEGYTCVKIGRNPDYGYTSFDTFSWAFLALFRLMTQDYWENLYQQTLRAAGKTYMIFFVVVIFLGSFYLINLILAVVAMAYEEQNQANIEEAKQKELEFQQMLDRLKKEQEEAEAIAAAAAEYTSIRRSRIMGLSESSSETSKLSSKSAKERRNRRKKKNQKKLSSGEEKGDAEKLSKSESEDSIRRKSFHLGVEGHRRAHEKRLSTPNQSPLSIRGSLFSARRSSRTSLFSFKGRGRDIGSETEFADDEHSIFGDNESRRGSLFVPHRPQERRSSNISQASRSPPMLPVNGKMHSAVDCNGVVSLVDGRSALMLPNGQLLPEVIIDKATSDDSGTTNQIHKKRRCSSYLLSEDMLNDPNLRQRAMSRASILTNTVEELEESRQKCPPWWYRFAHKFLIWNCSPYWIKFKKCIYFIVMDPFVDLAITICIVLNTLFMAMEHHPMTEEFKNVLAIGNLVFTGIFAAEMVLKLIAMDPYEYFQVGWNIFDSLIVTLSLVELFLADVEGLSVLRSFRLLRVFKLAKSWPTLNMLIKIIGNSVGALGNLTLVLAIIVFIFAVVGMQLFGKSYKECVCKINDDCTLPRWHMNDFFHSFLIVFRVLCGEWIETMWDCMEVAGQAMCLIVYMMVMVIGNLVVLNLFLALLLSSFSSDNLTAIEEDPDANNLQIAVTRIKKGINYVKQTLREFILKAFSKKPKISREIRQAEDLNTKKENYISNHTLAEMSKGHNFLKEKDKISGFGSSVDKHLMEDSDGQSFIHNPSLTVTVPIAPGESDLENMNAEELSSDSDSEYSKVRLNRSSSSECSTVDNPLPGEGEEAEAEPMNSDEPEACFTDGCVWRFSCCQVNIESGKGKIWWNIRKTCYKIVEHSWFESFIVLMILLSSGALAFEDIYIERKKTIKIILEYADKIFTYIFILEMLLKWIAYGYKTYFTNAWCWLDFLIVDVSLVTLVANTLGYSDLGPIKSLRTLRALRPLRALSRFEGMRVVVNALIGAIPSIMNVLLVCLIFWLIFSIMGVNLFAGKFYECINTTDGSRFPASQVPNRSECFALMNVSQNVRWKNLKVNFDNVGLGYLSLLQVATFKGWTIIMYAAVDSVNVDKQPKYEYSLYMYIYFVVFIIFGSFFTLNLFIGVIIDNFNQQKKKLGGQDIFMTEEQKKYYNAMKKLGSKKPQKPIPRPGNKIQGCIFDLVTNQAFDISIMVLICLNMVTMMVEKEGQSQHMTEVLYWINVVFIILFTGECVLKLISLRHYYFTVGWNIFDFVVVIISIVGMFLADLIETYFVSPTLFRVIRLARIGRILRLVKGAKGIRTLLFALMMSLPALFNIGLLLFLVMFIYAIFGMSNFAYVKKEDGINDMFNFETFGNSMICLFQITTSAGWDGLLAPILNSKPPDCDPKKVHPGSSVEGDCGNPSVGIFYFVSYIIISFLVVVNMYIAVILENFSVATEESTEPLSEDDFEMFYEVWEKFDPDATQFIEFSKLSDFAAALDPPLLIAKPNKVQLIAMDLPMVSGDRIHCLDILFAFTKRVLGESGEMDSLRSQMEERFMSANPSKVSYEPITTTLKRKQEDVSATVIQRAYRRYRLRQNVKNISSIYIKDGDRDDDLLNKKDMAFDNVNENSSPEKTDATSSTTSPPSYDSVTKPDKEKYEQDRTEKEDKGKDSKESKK

COCCOC(=O)C1=C(C)NC(C)=C(C(=O)OC/C=C/c2ccccc2)C1c1cccc([N+](=O)[O-])c1 (stereo not shown) [Cilnidipine, cilnidipine]
protein binding in plasma [1]: 98% | time to achieve maximal plasma concentration (Tmax) [2]: ≤ 2 h | tolerability (participants with SSc-RP [3]; 10 mg and 20 mg, alone or in combination with tadalafil): well tolerated; also recorded: good tolerability | Safety: withdrawals (participants with SSc-RP [3]; Cilnidipine 20 mg column (n = 8)): 1 withdrawal | Safety: number of AE (participants with SSc-RP [3]; Cilnidipine 20 mg, HA-mild (n = 8)): 1AE (HA-mild; | Safety: number of AE (participants with SSc-RP [3]; Pooled Cilnidipine, in combo with T (n = 9)): 1AE (in combo | overall adverse event rate (participants with SSc-RP [3]): 17% | overall adverse event rate (participants with SSc-RP [3]; listed as Profervia): 17% adverse | treatment discontinuations due to intolerance (participants with SSc-RP [3]; any dose of cilnidipine (n=17)): no treatment discontinuations due to intolerance | severity grade of adverse events (participants with SSc-RP [3]; patients treated with cilnidipine): only Grade 1 Adverse Events (AEs) were reported; also recorded: only mild (Grade 1) adverse events occurred | inhibition of Nav 1.7 compared to an 1800 mg dose of gabapentin (Nav 1.7 sodium channel): > 6 fold | AUCinf ([4]; mean (±SD)): 41.2 (±20.4) ng*h/mL | AUClast ([4]; mean (±SD)): 37.0 (±17.9) ng*hr/mL | CL/F ([4]; mean (±SD)): 304.7(±147.5) L/hr | Cmax ([4]; mean (±SD)): 8.9 (±4.2) ng/mL | T1/2 ([4]; mean (±SD)): 7.5(±1.0) hr | Tmax ([4]; median (minimum-maximum)): 2 (0.5-5) hr | Subgroup Baseline RCS <3.5, % change (participants with SSc-RP [5]; Cilnidipine 20 mg (n = 1)): baseline −42% | Subgroup Baseline RCS >3.5-7.5, % change (participants with SSc-RP [5]; Cilnidipine 20 mg (n = 2)): baseline −43% | Subgroup attack frequency, <10 baseline, % change (participants with SSc-RP [5]; Cilnidipine 20 mg (n = 2)): baseline −29% | Subgroup attack frequency, >10 baseline, % change (participants with SSc-RP [5]; Cilnidipine 20 mg (n = 2)): baseline −50% | Average Raynaud's Pain, % change (participants with SSc-RP [5]; Cilnidipine 20 mg (n = 3)): 12% | Daily RCS Change (participants with SSc-RP [5]; Cilnidipine 20 mg (n = 3)): −28% | Duration, % change (participants with SSc-RP [5]; Cilnidipine 20 mg (n = 3)): −20% | Mean % reduction in RCS (participants with SSc-RP [5]; Cilnidipine 20 mg (n = 3)): 27.9% | Mean % reduction in duration (participants with SSc-RP [5]; Cilnidipine 20 mg (n = 3)): 20.0% | Mean % reduction in pain (participants with SSc-RP [5]; Cilnidipine 20 mg (n = 3)): −11.8% | Mean % reduction in severity (participants with SSc-RP [5]; Cilnidipine 20 mg (n = 3)): 35.5% | Mean % reduction of weekly attacks (participants with SSc-RP [5]; Cilnidipine 20 mg (n = 3)): 43% | Severity, % change (participants with SSc-RP [5]; Cilnidipine 20 mg (n = 3)): −36% | Weekly attack frequency, % change (participants with SSc-RP [5]; Cilnidipine 20 mg (n = 3)): −43% | Weekly attack frequency, % change, if baseline RCS <3.5 (participants with SSc-RP [5]; Cilnidipine 20 mg (n = 3)): −42% | Subgroup Baseline RCS 3.5-7.5, % change (participants with SSc-RP [5]; Pooled Cilnidipine (n = 1)): baseline −86% | Subgroup attack frequency, <10 baseline, % change (participants with SSc-RP [5]; Pooled Cilnidipine (n = 2)): baseline −55% | Subgroup attack frequency, >10 baseline, % change (participants with SSc-RP [5]; Pooled Cilnidipine (n = 2)): baseline −28% | Daily RCS Change (participants with SSc-RP [5]; Pooled Cilnidipine (n = 3)): 12% (n = 3) | Subgroup Baseline RCS <3.5, % change (participants with SSc-RP [5]; Pooled Cilnidipine (n = 3)): baseline −27% | Average Raynaud's Pain, % change (participants with SSc-RP [5]; Pooled Cilnidipine (n = 7)): −27% | Duration, % change (participants with SSc-RP [5]; Pooled Cilnidipine (n = 7)): 20% | Severity, % change (participants with SSc-RP [5]; Pooled Cilnidipine (n = 7)): −16% | Weekly attack frequency, % change (participants with SSc-RP [5]; Pooled Cilnidipine (n = 7)): −41% | Weekly attack frequency, % change, if baseline RCS <3.5 (participants with SSc-RP [5]; Pooled Cilnidipine (n = 7)): −27% | DSMB finding on Raynaud's endpoints (participants with SSc-RP [5]; both doses (10 and 20 mg)): effective at reducing Raynaud's endpoints | Average Pain Score Change From Baseline [Mean (SD)] (participants with SSc-RP [5]; [6]): 0.47 (0.558) | Average Pain Score Percent Change from Baseline [Mean (SD)] (participants with SSc-RP [5]; [6]): 11.76 (27.478)† % | Average Pain Score [Mean (SD)] after treatment (Raynaud's pain) (participants with SSc-RP [5]; [6]): 2.82 (2.268) | Average Pain Score Change From Baseline [Mean (SD)] (participants with SSc-RP [5]; [7]): −0.47 (2.025) | Average Pain Score Percent Change from Baseline [Mean (SD)] (participants with SSc-RP [5]; [7]): −26.89 (89.725)* % | Average Pain Score [Mean (SD)] after treatment (Raynaud's pain) (participants with SSc-RP [5]; [7]): 1.28 (1.993)

CN1CC(=O)N2[C@H](c3ccc4c(c3)OCO4)c3[nH]c4ccccc4c3C[C@@H]2C1=O [Tadalafil, tadalafil]
Average Pain Score Change From Baseline [Mean (SD)] (participants with SSc-RP [5]; [6]): 0.37 (2.219) | Average Pain Score Percent Change from Baseline [Mean (SD)] (participants with SSc-RP [5]; [6]): 17.20 (64.838) % | Average Pain Score [Mean (SD)] after treatment (Raynaud's pain) (participants with SSc-RP [5]; [6]): 5.84 (4.768)

— patent US20240148709A1, “METHODS OF TREATING EYE PAIN AND EYE DISORDERS” (Aisa Pharma, Inc., priority 2022, published 2024)
